What all share (assay type): binding
Test [1] deals with T1, LdTOP1S (small subunit of L. donovani topoisomerase IB) (Leishmania donovani, UniProt Q8WQM6).
T1 sequence (Q8WQM6 1-262): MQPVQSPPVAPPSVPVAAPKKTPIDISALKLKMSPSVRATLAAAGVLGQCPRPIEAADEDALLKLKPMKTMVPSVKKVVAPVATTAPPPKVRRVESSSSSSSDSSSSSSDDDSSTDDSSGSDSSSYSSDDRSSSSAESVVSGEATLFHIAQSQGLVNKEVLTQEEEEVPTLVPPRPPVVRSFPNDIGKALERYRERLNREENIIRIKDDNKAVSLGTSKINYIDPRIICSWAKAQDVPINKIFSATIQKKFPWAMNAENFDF
As to the kind of experiment: intrinsic tryptophan fluorescence quenching.

Test [2] addresses T2, LdTOP1L (large subunit of L. donovani topoisomerase IB) (Leishmania donovani, UniProt A0A3Q8IHS4).
T2 sequence (A0A3Q8IHS4 1-635): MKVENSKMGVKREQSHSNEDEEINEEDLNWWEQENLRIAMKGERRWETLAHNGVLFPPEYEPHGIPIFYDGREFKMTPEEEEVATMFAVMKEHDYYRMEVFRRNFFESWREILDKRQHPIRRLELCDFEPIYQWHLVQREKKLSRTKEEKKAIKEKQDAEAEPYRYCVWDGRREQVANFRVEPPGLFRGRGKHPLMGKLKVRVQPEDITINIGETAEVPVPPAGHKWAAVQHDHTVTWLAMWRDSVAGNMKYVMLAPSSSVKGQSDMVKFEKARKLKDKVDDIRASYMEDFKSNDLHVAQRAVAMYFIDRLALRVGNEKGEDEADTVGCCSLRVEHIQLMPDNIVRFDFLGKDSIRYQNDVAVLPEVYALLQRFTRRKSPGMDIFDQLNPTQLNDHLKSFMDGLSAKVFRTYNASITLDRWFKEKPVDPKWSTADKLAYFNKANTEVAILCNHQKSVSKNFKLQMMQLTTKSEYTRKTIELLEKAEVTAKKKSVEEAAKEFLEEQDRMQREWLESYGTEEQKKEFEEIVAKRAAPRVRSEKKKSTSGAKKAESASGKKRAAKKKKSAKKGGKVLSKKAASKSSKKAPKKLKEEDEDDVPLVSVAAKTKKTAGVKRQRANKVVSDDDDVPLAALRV
Put plainly: intrinsic tryptophan fluorescence quenching.

The target in test [3] is T3, LdTOP1LS (reconstituted heterodimeric topoisomerase IB) (Leishmania donovani, UniProt A0A3Q8IHS4+Q8WQM6).
T3 sequence (A0A3Q8IHS4 1-635): T2 sequence (A0A3Q8IHS4 1-635)
T3 sequence (Q8WQM6 1-262): T1 sequence (Q8WQM6 1-262)
Put plainly: tryptophan fluorescence quenching.

Usually Kd stands for the equilibrium constant for the complex coming apart. Read a low Kd as higher affinity. For `COC[C@@H](Cc1ccc(OC)c(OC)c1)[C@@H](COC)Cc1cc(OC)c2c(c1)OCO2` [niranthin], the Kd turned out to be 169 ± 120 nM in test [1], 372 ± 260 nM in test [2] and 299 ± 160 nM in test [3].

Source of the values: publication PMC3491841 (EMBO Molecular Medicine, 2012).
